Results taken from ChEMBL document CHEMBL4602612, “Design, synthesis and biological evaluation of mogrol derivatives as a novel class of AMPKα2β1γ1 activators” (Bioorg Med Chem Lett, 2020).
pEC50: −log10 of the molar value.

Target: AMPK alpha2/beta1/gamma1 (Homo sapiens) (UniProt P54646+P54619+Q9Y478)
Test: Potency index, ratio of mogrol EC50 to test compound EC50 for allosteric activation of AMPK alpha2/beta1/gamma1 in human HepG2 cells by scintillation proximity assay
Format: cell-based

Sequence of AMPK alpha2/beta1/gamma1 (Homo sapiens) (P54619 whole entry partner): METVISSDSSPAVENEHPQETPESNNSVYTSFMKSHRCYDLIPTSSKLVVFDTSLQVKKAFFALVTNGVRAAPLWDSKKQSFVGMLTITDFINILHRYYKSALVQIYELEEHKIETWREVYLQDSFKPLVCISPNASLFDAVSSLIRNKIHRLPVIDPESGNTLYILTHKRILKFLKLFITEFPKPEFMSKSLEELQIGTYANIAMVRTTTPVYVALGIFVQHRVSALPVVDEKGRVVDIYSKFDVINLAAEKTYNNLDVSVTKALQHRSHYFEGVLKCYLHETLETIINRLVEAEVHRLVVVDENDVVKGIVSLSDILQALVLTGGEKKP
Sequence of AMPK alpha2/beta1/gamma1 (Homo sapiens) (P54646 whole entry): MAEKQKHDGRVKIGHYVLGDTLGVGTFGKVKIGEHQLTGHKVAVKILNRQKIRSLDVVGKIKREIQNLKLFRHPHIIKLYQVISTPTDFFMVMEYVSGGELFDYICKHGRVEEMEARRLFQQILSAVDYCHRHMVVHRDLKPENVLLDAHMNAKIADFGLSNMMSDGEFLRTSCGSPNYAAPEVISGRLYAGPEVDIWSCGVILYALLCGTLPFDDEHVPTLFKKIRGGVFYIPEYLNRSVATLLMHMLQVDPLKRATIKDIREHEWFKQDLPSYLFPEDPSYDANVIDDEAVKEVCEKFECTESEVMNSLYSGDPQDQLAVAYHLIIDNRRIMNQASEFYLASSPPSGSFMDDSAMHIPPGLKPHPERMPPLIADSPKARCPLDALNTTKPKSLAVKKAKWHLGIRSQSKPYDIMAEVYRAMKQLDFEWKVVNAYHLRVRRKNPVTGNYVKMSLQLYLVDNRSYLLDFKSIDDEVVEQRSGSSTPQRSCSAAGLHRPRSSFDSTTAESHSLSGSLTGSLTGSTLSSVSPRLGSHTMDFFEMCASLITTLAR
Sequence of AMPK alpha2/beta1/gamma1 (Homo sapiens) (Q9Y478 2-270 partner limits assumed): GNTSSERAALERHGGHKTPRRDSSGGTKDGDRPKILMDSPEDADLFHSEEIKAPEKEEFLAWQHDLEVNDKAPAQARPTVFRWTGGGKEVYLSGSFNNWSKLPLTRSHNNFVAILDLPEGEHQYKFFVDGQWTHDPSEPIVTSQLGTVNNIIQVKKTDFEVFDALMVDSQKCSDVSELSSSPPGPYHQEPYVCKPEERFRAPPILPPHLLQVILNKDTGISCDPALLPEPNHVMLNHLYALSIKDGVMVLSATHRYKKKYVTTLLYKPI

Row | Ratio EC50 | Structure (SMILES)
1 | 20 | CCCNCCC[C@@H](C)[C@H]1CC[C@@]2(C)[C@@H]3CC=C4[C@@H](CC[C@H](O)C4(C)C)[C@]3(C)[C@H](O)C[C@]12C
2 | 20 | CC(C)NCCC[C@@H](C)[C@H]1CC[C@@]2(C)[C@@H]3CC=C4[C@@H](CC[C@H](O)C4(C)C)[C@]3(C)[C@H](O)C[C@]12C

Target: AMPK alpha2/beta1/gamma1 (Homo sapiens, UniProt P54619+P54646+Q9Y478)
Sequence (P54646 whole entry): as the sequence (P54646 whole entry) above
Sequence (P54619 whole entry): as the sequence (P54619 whole entry partner) above
Sequence (Q9Y478 whole entry): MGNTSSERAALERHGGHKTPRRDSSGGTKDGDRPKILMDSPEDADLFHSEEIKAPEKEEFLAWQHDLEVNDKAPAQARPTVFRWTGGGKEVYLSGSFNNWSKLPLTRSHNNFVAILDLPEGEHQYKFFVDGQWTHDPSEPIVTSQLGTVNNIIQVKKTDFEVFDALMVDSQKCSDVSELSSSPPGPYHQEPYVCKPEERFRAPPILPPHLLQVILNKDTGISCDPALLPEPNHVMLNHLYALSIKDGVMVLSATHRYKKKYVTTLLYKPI
Test: Allosteric activation of AMPK alpha2/beta1/gamma1 in human HepG2 cells by scintillation proximity assay
Format: cell-based

Row | pEC50 | Structure (SMILES)
3 | 5.33 | COc1ccc(NCCC[C@@H](C)[C@H]2CC[C@@]3(C)[C@@H]4CC=C5[C@@H](CC[C@H](O)C5(C)C)[C@]4(C)[C@H](O)C[C@]23C)cc1
4 | 5.46 | C[C@H](CCCNCCCn1ccnc1)[C@H]1CC[C@@]2(C)[C@@H]3CC=C4[C@@H](CC[C@H](O)C4(C)C)[C@]3(C)[C@H](O)C[C@]12C
5 | 5.85 | C[C@H](CCCNC(C)(C)C)[C@H]1CC[C@@]2(C)[C@@H]3CC=C4[C@@H](CC[C@H](O)C4(C)C)[C@]3(C)[C@H](O)C[C@]12C
6 | 5.13 | CNCCC[C@@H](C)[C@H]1CC[C@@]2(C)[C@@H]3CC=C4[C@@H](CC[C@H](O)C4(C)C)[C@]3(C)[C@H](O)C[C@]12C
7 | 6.82 | CCCNCCC[C@@H](C)[C@H]1CC[C@@]2(C)[C@@H]3CC=C4[C@@H](CC[C@H](O)C4(C)C)[C@]3(C)[C@H](O)C[C@]12C
8 | 5.85 | Nc1ncnc2c1ncn2[C@@H]1O[C@H](COP(=O)(O)O)[C@@H](O)[C@H]1O [ADENOSINE PHOSPHATE]
9 | 6.30 | C[C@H](CCCNCCN1CCNCC1)[C@H]1CC[C@@]2(C)[C@@H]3CC=C4[C@@H](CC[C@H](O)C4(C)C)[C@]3(C)[C@H](O)C[C@]12C
10 | 5.77 | C[C@H](NCCC[C@@H](C)[C@H]1CC[C@@]2(C)[C@@H]3CC=C4[C@@H](CC[C@H](O)C4(C)C)[C@]3(C)[C@H](O)C[C@]12C)c1ccccc1
11 | 5.30 | CCNCCC[C@@H](C)[C@H]1CC[C@@]2(C)[C@@H]3CC=C4[C@@H](CC[C@H](O)C4(C)C)[C@]3(C)[C@H](O)C[C@]12C
12 | 6.15 | C[C@H](CCCNCc1ccc(F)cc1)[C@H]1CC[C@@]2(C)[C@@H]3CC=C4[C@@H](CC[C@H](O)C4(C)C)[C@]3(C)[C@H](O)C[C@]12C
13 | 5.80 | C[C@H](CCCNCc1ccccn1)[C@H]1CC[C@@]2(C)[C@@H]3CC=C4[C@@H](CC[C@H](O)C4(C)C)[C@]3(C)[C@H](O)C[C@]12C
14 | 6.30 | C[C@H](CCCNCc1ccncc1)[C@H]1CC[C@@]2(C)[C@@H]3CC=C4[C@@H](CC[C@H](O)C4(C)C)[C@]3(C)[C@H](O)C[C@]12C
15 | 6.15 | C[C@H](CCCNCc1cccnc1)[C@H]1CC[C@@]2(C)[C@@H]3CC=C4[C@@H](CC[C@H](O)C4(C)C)[C@]3(C)[C@H](O)C[C@]12C
16 | 5.70 | C[C@H](CCCNCCc1ccccc1)[C@H]1CC[C@@]2(C)[C@@H]3CC=C4[C@@H](CC[C@H](O)C4(C)C)[C@]3(C)[C@H](O)C[C@]12C
17 | 6.85 | CC(C)NCCC[C@@H](C)[C@H]1CC[C@@]2(C)[C@@H]3CC=C4[C@@H](CC[C@H](O)C4(C)C)[C@]3(C)[C@H](O)C[C@]12C
18 | 5.82 | C[C@H](CCCNCc1ccccc1)[C@H]1CC[C@@]2(C)[C@@H]3CC=C4[C@@H](CC[C@H](O)C4(C)C)[C@]3(C)[C@H](O)C[C@]12C
19 | 5.39 | C[C@H](CCCNC1CC1)[C@H]1CC[C@@]2(C)[C@@H]3CC=C4[C@@H](CC[C@H](O)C4(C)C)[C@]3(C)[C@H](O)C[C@]12C
20 | 6.22 | C[C@H](CCCNCc1ccc(Cl)cc1)[C@H]1CC[C@@]2(C)[C@@H]3CC=C4[C@@H](CC[C@H](O)C4(C)C)[C@]3(C)[C@H](O)C[C@]12C
21 | 5.77 | C[C@H](CCCNCCc1ccc([N+](=O)[O-])cc1)[C@H]1CC[C@@]2(C)[C@@H]3CC=C4[C@@H](CC[C@H](O)C4(C)C)[C@]3(C)[C@H](O)C[C@]12C
22 | 6.70 | COc1ccc(CNCCC[C@@H](C)[C@H]2CC[C@@]3(C)[C@@H]4CC=C5[C@@H](CC[C@H](O)C5(C)C)[C@]4(C)[C@H](O)C[C@]23C)cc1OC
23 | 6.30 | COc1ccc(CCNCCC[C@@H](C)[C@H]2CC[C@@]3(C)[C@@H]4CC=C5[C@@H](CC[C@H](O)C5(C)C)[C@]4(C)[C@H](O)C[C@]23C)cc1OC
24 | 5.85 | C[C@H](CCCNCCCO)[C@H]1CC[C@@]2(C)[C@@H]3CC=C4[C@@H](CC[C@H](O)C4(C)C)[C@]3(C)[C@H](O)C[C@]12C

Row | Structure (SMILES) | pEC50
25 | C[C@H](CC[C@@H](O)C(C)(C)O)[C@H]1CC[C@@]2(C)[C@@H]3CC=C4[C@@H](CC[C@H](O)C4(C)C)[C@]3(C)[C@H](O)C[C@]12C [MOGROL] | 5.52
